These results are taken from patent US11878975B2, “Substituted indole compounds useful as TLR inhibitors” (BRISTOL-MYERS SQUIBB COMPANY, priority 2017, dated 2024).

Format in all cases: cell-based
In one assay the target is T1, human TLR9 (Homo sapiens, UniProt Q9NR96).
T1 construct: host or cells: HEK-Blue cells
T1 sequence (Q9NR96 26-1032): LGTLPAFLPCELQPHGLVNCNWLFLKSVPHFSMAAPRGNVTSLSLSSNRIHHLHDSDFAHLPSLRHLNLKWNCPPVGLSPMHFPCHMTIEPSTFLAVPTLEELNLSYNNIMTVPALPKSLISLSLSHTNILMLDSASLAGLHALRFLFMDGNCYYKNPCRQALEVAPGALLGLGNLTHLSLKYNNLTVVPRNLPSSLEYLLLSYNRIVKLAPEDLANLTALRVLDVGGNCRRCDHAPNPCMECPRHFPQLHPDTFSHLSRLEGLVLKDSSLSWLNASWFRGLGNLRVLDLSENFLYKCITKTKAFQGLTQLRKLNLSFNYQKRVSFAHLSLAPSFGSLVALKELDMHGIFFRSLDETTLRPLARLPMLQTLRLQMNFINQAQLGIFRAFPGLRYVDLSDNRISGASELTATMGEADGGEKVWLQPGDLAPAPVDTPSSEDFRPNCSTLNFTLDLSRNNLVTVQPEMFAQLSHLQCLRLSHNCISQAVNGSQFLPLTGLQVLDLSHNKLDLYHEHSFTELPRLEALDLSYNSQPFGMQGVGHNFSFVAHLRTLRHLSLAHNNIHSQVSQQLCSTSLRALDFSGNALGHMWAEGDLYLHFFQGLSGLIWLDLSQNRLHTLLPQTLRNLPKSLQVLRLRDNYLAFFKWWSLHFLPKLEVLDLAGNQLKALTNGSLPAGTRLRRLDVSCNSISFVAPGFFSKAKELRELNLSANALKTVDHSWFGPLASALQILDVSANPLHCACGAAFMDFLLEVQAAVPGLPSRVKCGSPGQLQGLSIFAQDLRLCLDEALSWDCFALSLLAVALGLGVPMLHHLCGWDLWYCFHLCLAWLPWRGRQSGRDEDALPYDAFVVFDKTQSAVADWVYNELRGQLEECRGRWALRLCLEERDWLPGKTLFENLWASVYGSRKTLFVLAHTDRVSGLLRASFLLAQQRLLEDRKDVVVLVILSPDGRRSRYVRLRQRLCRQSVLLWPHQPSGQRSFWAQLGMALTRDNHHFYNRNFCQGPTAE
The assay is described as follows: TLR9 inhibition reporter assay (HEK-Blue cells, SEAP reporter, ODN2006 stimulation). The conditions noted are these: HEK-Blue cells overexpressing human TLR9, SEAP reporter, ODN2006 5 nM. The protocol: (§1) TLR7/8/9 Inhibition Reporter Assays
(§2) HEK-Blue™-cells (Invivogen) overexpressing human TLR7, TLR8 or TLR9 receptors were used for screening inhibitors of these receptors using an inducible SEAP (secreted embryonic alkaline phosphatase) reporter gene under the control of the IFN-β minimal promoter fused to five NF-κB and AP-1-binding sites. Briefly, cells are seeded into Greiner 384 well plates (15000 cells per well for TLR7, 20,000 for TLR8 and 25,000 for TLR9) and then treated with test compounds in DMSO to yield a final dose response concentration range of 0.05 nM-50 μM. After a 30 minute compound pre-treatment al room temperature, the cells are then stimulated with a TLR7 ligand (gardiquimod at a final concentration of 7.5 μM), TLR8 ligand (R848 at a final concentration of 15.9 μM) or TLR9 ligand (ODN2006 at a final concentration of 5 nM) to activate NF-κB and AP-1 which induce the production of SEAP. After a 22 hour incubation at 37° C., 5% CO2, SEAP levels are determined with the addition of HEK-Blue™ Detection reagent (Invivogen), a cell culture medium that allows for detection of SEAP, according to manufacturer's specifications. The percent inhibition is determined as the % reduction in the HEK-Blue signal present in wells treated with agonist plus DMSO alone compared to wells treated with a known inhibitor.

The target in another assay is T2, human TLR7 (Homo sapiens, UniProt Q9NYK1).
T2 construct: host or cells: HEK-Blue cells
T2 sequence (Q9NYK1 27-1049): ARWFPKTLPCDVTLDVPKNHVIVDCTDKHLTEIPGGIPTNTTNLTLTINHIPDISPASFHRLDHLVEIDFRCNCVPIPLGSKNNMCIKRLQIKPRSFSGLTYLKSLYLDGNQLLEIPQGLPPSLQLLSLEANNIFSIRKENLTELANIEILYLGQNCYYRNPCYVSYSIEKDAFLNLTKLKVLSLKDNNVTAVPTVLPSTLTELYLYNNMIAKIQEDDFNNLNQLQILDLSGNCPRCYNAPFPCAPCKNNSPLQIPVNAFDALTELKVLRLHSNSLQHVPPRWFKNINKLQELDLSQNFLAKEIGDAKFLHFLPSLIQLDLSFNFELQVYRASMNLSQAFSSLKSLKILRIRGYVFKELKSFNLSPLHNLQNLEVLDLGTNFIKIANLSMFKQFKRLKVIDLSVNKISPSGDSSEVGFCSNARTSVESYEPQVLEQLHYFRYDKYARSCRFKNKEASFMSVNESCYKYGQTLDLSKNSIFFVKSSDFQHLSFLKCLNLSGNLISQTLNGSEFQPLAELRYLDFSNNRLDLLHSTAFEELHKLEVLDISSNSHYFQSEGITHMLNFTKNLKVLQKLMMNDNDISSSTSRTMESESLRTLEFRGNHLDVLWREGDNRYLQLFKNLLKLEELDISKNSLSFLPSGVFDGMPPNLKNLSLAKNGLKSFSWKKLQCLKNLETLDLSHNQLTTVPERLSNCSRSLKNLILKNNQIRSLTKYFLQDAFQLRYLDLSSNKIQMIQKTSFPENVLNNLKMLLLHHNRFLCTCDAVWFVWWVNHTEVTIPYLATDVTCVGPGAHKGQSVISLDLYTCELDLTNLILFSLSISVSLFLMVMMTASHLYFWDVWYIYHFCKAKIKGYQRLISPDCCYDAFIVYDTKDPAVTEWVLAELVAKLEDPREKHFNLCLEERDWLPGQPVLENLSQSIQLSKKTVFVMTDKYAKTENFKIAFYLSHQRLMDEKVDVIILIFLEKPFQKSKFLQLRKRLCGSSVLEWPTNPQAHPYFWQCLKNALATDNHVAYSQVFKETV
Description: TLR7 inhibition reporter assay (HEK-Blue cells, SEAP reporter, gardiquimod stimulation). As to conditions: HEK-Blue cells overexpressing human TLR7, SEAP reporter, gardiquimod 7.5 μM. How it is done: as §1, §2

The next assay deals with T3, human TLR8 (Homo sapiens, UniProt Q9NR97).
T3 construct: host or cells: HEK-Blue cells
T3 sequence (Q9NR97 27-1041): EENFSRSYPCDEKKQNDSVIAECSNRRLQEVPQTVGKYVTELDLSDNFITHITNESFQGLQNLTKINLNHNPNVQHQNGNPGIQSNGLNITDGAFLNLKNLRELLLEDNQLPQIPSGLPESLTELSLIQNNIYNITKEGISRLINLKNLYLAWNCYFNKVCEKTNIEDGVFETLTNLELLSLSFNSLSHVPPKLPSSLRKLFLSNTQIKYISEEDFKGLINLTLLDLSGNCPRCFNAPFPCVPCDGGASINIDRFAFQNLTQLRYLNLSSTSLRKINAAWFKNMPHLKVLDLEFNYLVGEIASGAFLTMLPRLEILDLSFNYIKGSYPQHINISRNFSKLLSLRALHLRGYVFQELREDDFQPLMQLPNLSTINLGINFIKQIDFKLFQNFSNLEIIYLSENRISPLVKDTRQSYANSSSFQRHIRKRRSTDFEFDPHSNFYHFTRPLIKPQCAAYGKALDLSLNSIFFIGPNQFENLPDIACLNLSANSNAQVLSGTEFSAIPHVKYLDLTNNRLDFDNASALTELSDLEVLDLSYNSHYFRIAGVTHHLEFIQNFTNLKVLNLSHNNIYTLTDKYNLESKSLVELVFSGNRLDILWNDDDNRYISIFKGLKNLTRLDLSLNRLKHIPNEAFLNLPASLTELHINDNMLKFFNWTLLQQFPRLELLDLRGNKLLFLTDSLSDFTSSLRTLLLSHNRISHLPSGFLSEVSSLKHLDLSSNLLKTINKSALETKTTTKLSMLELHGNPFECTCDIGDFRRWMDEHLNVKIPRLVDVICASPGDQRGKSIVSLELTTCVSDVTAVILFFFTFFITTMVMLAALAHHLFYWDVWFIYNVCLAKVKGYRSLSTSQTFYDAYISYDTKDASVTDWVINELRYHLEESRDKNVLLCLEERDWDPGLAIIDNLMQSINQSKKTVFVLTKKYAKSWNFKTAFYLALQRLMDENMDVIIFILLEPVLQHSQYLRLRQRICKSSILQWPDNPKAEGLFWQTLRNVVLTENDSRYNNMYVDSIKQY
Description: TLR8 inhibition reporter assay (HEK-Blue cells, SEAP reporter, R848 stimulation). The conditions noted are these: HEK-Blue cells overexpressing human TLR8, SEAP reporter, R848 15.9 μM. How it is done: as §1, §2
On the technique in general: A reporter such as luciferase makes a cellular process visible.

The IC50 is the concentration needed to halve the response being measured. Read a high IC50 as lower potency. For the compound `CCc1c(-c2ccnc(C)c2)[nH]c2ccc(CC3CCCN3)cc12` (stereo not shown) [Example 420], the IC50 was found to be 1060 nM at human TLR9, 306 nM on human TLR7 and 38 nM against human TLR8.

Consider `CN[C@@H](C)C(=O)N1CCCC(c2ccc3[nH]c(-c4cc(C)nc(C)c4)c(C(C)C)c3c2)C1` (stereo partly shown) [Example 219], for which the IC50 against human TLR9 came to 519 nM; at human TLR7, 9 nM; against human TLR8, 8.5 nM.

For `Cc1c(-c2[nH]c3ccc(C4CC5CN(C(C)C)CC5C4)cc3c2C(C)C)cn2cnnc2c1C` (stereo not shown) [Example 560], the IC50 on human TLR9 was 2330 nM; at human TLR7 it was 1 nM; against human TLR8, 27 nM.

As for `Cc1cc(-c2[nH]c3ccc(C4CN(CCS(C)(=O)=O)CCO4)cc3c2C(C)C)cn2ncnc12` (stereo not shown) [Example 344], the IC50 on human TLR9 is more than 50000 nM; at human TLR7, 7 nM; against human TLR8, 14 nM.

`COc1cc(-c2[nH]c3ccc(CCC4CN(C)C4)cc3c2C(C)C)cn2ncnc12` [Example 438]: the IC50 on human TLR9 is 2100 nM; against human TLR7, 5 nM; against human TLR8, 37 nM.

Take `Cc1c(-c2[nH]c3ccc(C4CC5CN(CC#N)CC5C4)cc3c2C(C)C)cn2cnnc2c1C` (stereo not shown) [Example 558]: the concentration for half-maximal inhibition (IC50) was found to be 3720 nM at human TLR9, 6 nM against human TLR7 and 117 nM on human TLR8.

`Cc1cc(-c2[nH]c3ccc(C4CNC4)cc3c2C(C)C)cn2ncnc12` [Example 257, 6-(5-(azetidin-3-yl)-3-isopropyl-1H-indol-2-yl)-8-methyl-[1,2,4]triazolo[1,5-a]pyridine]: the IC50 against human TLR9 came out at 760 nM; against human TLR7, 0.44 nM; on human TLR8, 1.9 nM.

Take `Cc1cc(-c2[nH]c3ccc(C4CN(C)C(C)(C)CO4)cc3c2C(C)C)cn2ncnc12` (single isomer, unassigned) [Example 376, 2-(3-isopropyl-2-(8-methyl-[1,2,4]triazolo[1,5-a]pyridin-6-yl)-1H-indol-5-yl)-4,5,5-trimethylmorpholine]: the IC50 on human TLR9 is 2670 nM; against human TLR7, 2 nM; against human TLR8 it was 2.1 nM.

In the case of `Cc1c(-c2[nH]c3ccc(CC4CN(CC(=O)N(C)C)C4)cc3c2C(C)C)cn2ncnc2c1C` [Example 400], the IC50 against human TLR9 came out at 2820 nM; against human TLR7, 18 nM; against human TLR8, 5.1 nM.

As to `Cc1cc(-c2[nH]c3ccc(C4CN(C)CCO4)cc3c2C(C)C)cn2ncnc12` (stereo not shown) [Example 293], the IC50 was 10100 nM on human TLR9, 2 nM against human TLR7 and 1.1 nM against human TLR8.

Turning to `Cc1cc(-c2[nH]c3ccc([C@@H]4C[C@H]4C(=O)NC4CC5CCN4CC5)cc3c2C(C)C)ccn1` (stereo partly shown) [Example 460], the IC50 against human TLR9 was found to be 179 nM; against human TLR7, 51 nM; at human TLR8, 31 nM.

For `CCN(CC)CC(=O)N1CCOC(c2ccc3[nH]c(-c4cc(OC)c5ncnn5c4)c(C(C)C)c3c2)C1` (stereo not shown) [Example 333], the IC50 came out at 0.71 nM against human TLR7 and 4.7 nM on human TLR8.

As to `Cc1c(-c2[nH]c3ccc(C4CC(NCC#N)C4)cc3c2C(C)C)cn2ncnc2c1C` (stereo not shown) [Example 577], the IC50 came to 4 nM at human TLR7 and 4.5 nM at human TLR8.

On to `Cc1cc(-c2[nH]c3ccc(C4CCC(C)(O)CC4)cc3c2C(C)C)cc(C)n1` (single isomer, unassigned) [Example 170], for which the IC50 at human TLR7 came out at 13 nM; at human TLR8, 590 nM.

In the case of `Cc1c(-c2[nH]c3ccc(C4CNC4)cc3c2C(C)C)cn(C)c(=O)c1C` [Example 486], the IC50 at human TLR7 was found to be 19 nM; on human TLR8 it was 13 nM.

As for `COc1cc(-c2[nH]c3ccc(C4CCC(NC(=O)CN5CC(CO)(CO)C5)CC4)cc3c2C(C)C)cn2ncnc12` (stereo not shown) [Example 134], the IC50 worked out at 1 nM on human TLR7 and 2.5 nM on human TLR8.

As for `CN[C@H](C)C(=O)N1CCCC(c2ccc3[nH]c(-c4cc(C)nc(C)c4)c(C(C)C)c3c2)C1` (stereo partly shown) [Example 221], the IC50 was found to be 357 nM on human TLR9 and 4.4 nM at human TLR8.

Consider `Cc1c(-c2[nH]c3ccc(C4CC(NC5COC5)C4)cc3c2C(C)C)cn2ncnc2c1C` (stereo not shown) [Example 576], for which the IC50 is 23 nM at human TLR7 and 7.4 nM at human TLR8.

Consider `COc1cc(-c2[nH]c3ccc(C4CCC(NC(=O)CNCC5COC(C)(C)O5)CC4)cc3c2C(C)C)cn2ncnc12` (stereo not shown) [Example 136], for which the IC50 at human TLR9 amounted to 19200 nM; at human TLR8 it was 7.2 nM.
